Assay results published in PubChem BioAssay AID588808 (Broad Institute, 2011).
Activity calls are given as the source filed them.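 How the source made its calls: active means Aurora B inhibition with potency within ten times the top dose, in every repeat test; inconclusive means repeat tests disagree in their calls; inactive means every repeat test inactive.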

Target: Aurora kinase B (Homo sapiens) (UniProt Q96GD4)
Experiment: Aurora B kinase inhibition counter-screen, dose response, counter-screen for STK33 inhibitor project, biochemical, scintillation, dry powder, set 3 (AID 588808)
Conditions: Recombinant Aurora B, 33P-ATP filter-binding scintillation; for activity change, negative = inhibition: at 10 µM (top of the series)

Chain of Aurora kinase B (Homo sapiens) (Q96GD4 whole entry, looked up): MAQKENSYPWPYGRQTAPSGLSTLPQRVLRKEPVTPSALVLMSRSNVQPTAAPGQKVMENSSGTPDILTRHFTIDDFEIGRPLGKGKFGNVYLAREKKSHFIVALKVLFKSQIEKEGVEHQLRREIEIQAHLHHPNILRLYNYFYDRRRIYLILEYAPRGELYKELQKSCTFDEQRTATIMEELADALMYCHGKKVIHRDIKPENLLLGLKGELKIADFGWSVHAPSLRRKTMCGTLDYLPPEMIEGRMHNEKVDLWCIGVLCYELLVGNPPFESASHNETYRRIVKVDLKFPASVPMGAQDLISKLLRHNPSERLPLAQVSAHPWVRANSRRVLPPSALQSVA

Structure (SMILES) | activity change, negative = inhibition | AC50 [µM]
COc1ccc(NC(=O)c2cccs2)c(-c2nc3ccccc3[nH]c2=O)c1 | inactive | –
O=C(Nc1ccccc1-c1nc2ccccc2[nH]c1=O)c1cccnc1 | inactive | –
O=C(Nc1cc(Cl)ccc1-c1nc2ccccc2[nH]c1=O)c1cccs1 | inactive | –
O=C(Nc1ccc(Cl)cc1-c1nc2ccccc2[nH]c1=O)c1cccs1 | inactive | –
O=C(Nc1ccc(F)cc1-c1nc2ccccc2[nH]c1=O)c1cccs1 | inactive | –
CC(C)c1ccc(NC(=O)c2cccs2)c(-c2nc3ccccc3[nH]c2=O)c1 | – | 7.79
O=C(Nc1ccccc1-c1nc2ccccc2[nH]c1=O)c1ccc(F)cc1 | inactive | –
O=C(Nc1ccccc1-c1nc2ccccc2[nH]c1=O)c1cccs1 | inactive | –
O=C(Nc1ccc(OC(F)(F)F)cc1-c1nc2ccccc2[nH]c1=O)c1cccs1 | inactive | –
O=C(Nc1ccccc1-c1nc2ccccc2[nH]c1=O)c1cccc(Cl)c1 | inactive | –
O=C(Nc1ccccc1-c1nc2ccccc2[nH]c1=O)c1ccccn1 | inactive | –
COc1ccc(C(=O)Nc2ccccc2-c2nc3ccccc3[nH]c2=O)cc1 | inactive | –
O=C(Nc1cc(F)ccc1-c1nc2ccccc2[nH]c1=O)c1cccs1 | inactive | –
